Assay results taken from patent US8283353B2, “Fused ring compound and use thereof” (Takeda Pharmaceutical Company Limited, priority 2009, dated 2012).

Tests used:
[1] = molecular target: T1, human PPARγ (Homo sapiens, UniProt P37231); assay: PPARγ agonistic activity: luciferase reporter assay in PPARγ:RXRα:4ERPP/CHO-K1 cells; type: cell-based; details: CHO-K1, test compound 10^−6 M; luciferase activity of control compound X (1 μM) = 100%, non-administration group = 0%
T1 construct: expressed in transfected cells
T1 sequence (P37231 1-477 isoform P37231-2): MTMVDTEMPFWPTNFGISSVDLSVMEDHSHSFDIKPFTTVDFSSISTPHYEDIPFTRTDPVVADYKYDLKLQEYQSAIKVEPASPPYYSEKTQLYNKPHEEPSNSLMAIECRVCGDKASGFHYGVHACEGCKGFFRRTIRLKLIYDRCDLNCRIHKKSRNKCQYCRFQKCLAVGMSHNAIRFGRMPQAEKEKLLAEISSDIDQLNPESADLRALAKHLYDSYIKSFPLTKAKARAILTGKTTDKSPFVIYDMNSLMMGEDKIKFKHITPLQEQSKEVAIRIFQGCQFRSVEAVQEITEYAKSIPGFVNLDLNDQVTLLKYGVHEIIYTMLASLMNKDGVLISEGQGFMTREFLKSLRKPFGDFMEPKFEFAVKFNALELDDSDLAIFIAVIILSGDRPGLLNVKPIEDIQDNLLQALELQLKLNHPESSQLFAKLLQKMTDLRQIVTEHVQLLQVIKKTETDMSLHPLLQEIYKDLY
T1 sequence (P19793 1-462 partner): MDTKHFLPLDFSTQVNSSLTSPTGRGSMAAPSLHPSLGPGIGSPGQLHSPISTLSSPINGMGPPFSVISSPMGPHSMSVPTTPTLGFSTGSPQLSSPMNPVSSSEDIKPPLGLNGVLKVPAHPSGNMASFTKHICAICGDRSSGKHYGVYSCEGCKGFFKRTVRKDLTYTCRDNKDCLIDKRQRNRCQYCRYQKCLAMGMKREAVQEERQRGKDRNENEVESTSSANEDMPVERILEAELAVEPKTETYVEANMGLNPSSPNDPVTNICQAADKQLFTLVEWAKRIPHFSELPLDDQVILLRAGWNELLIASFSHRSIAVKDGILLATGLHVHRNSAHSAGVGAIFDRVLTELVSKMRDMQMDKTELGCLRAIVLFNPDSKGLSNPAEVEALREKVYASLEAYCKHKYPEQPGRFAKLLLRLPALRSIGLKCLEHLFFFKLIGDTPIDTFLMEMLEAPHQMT
How it was run: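 Activity is expressed relative to untreated cells (0%) and 1 μM reference compound X (100%), from luciferase luminescence. Reporter line: PPARγ:RXRα:4ERPP/CHO-K1, exposed to compound for one day at 37 °C in F12 medium containing 0.1% fatty-acid-free BSA.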

[2] = molecular target: T2, human AT1 receptor (Homo sapiens, UniProt P30556); assay: AT1 receptor antagonistic activity: [125I]-angiotensin II binding assay on human AT1 receptor-expressing CHO-K1 cellular membrane fraction; details: 22.5 pM [125I]-angiotensin II, 1 hr room temperature
T2 construct: expressed in transfected cells; membrane fraction
T2 sequence (P30556 1-359): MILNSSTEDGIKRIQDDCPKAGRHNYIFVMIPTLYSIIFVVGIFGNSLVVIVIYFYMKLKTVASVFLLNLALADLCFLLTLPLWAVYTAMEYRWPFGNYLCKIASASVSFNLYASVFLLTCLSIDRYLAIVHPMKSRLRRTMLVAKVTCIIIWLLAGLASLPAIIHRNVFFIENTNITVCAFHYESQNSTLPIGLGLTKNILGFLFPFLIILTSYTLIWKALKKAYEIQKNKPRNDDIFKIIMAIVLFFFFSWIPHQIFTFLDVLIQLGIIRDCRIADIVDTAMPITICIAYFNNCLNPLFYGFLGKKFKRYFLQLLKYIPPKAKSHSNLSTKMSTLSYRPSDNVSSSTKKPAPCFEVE
How it was run: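 Competition binding used radiolabelled angiotensin II on stably transfected CHO-K1 membrane fractions in Tris pH 7.4/MgCl2 buffer, optionally containing 0.3 mg/mL fatty acid-free BSA, 1 hr at room temperature. Filtration onto GF/C separated bound tracer, and nonspecific binding was measured with candesartan.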

| Structure (SMILES) | activation at 1 µM [1] | IC50 [2] |
| --- | --- | --- |
| CCCc1c(Cc2ccc(-c3ccccc3-c3noc(=O)[nH]3)cc2)c(=O)n([C@H]2CC[C@H](OCC(O)(CC)CC)CC2)c2ncnn12 [Example 225, 4-[trans-4-(2-ethyl-2-hydroxybutoxy)cyclohexyl]-6-{[2′-(5-oxo-4,5-dihydro-1,2,4-oxadiazol-3-yl)biphenyl-4-yl]methyl}-7-propyl[1,2,4]triazolo[1,5-a]pyrimidin-5(4H)-one] | 21% | 2.3 nM |
| CCCc1c(Cc2ccc(-c3ccccc3-c3noc(=O)[nH]3)cc2)c(=O)n([C@H]2CC[C@H](OCC3(C#N)CCC3)CC2)c2ncnn12 [Example 227, 1-[({trans-4-[5-oxo-6-{[2′-(5-oxo-4,5-dihydro-1,2,4-oxadiazol-3-yl)biphenyl-4-yl]methyl}-7-propyl[1,2,4]triazolo[1,5-a]pyrimidin-4(5H)-yl]cyclohexyl}oxy)methyl]cyclobutanecarbonitrile] | 23% | 2.5 nM |
| CCCc1c(Cc2ccc(-c3ccccc3-c3noc(=O)[nH]3)cc2F)c(=O)n([C@H]2CC[C@H](OC(C)C#N)CC2)c2nc(C)nn12 (stereo partly drawn) [Example 249, 2-({trans-4-[6-{[3-fluoro-2′-(5-oxo-4,5-dihydro-1,2,4-oxadiazol-3-yl)biphenyl-4-yl]methyl}-2-methyl-5-oxo-7-propyl[1,2,4]triazolo[1,5-a]pyrimidin-4(5H)-yl]cyclohexyl}oxy)propanenitrile] | 35% | 2.5 nM |
| CCCc1c(Cc2ccc(-c3ccccc3-c3noc(=O)[nH]3)cc2F)c(=O)n([C@H]2CC[C@H](OCC3(O)CCC3)CC2)c2ncnn12 [Example 252, 6-{[3-fluoro-2′-(5-oxo-4,5-dihydro-1,2,4-oxadiazol-3-yl)biphenyl-4-yl]methyl}-4-{trans-4-[(1-hydroxycyclobutyl)methoxy]cyclohexyl}-7-propyl[1,2,4]triazolo[1,5-a]pyrimidin-5(4H)-one] | 40% | 2.4 nM |
| CCCc1c(Cc2ccc(-c3ccccc3-c3noc(=O)[nH]3)cc2)c(=O)n([C@H]2C[C@H](OCC(O)(CC)CC)C2)c2ncnn12 [Example 259, 4-[trans-3-(2-ethyl-2-hydroxybutoxy)cyclobutyl]-6-{[2′-(5-oxo-4,5-dihydro-1,2,4-oxadiazol-3-yl)biphenyl-4-yl]methyl}-7-propyl[1,2,4]triazolo[1,5-a]pyrimidin-5(4H)-one] | 28% | 2.3 nM |
| CCCc1c(Cc2ccc(-c3ccccc3-c3noc(=O)[nH]3)cc2)c(=O)n(C2CCOCC2)c2ccnn12 [Example 269, 6-{[2′-(5-oxo-4,5-dihydro-1,2,4-oxadiazol-3-yl)biphenyl-4-yl]methyl}-7-propyl-4-(tetrahydro-2H-pyran-4-yl)pyrazolo[1,5-a]pyrimidin-5(4H)-one] | 16% | 2.2 nM |
| CCCc1c(Cc2ccc(-c3ccccc3-c3noc(=O)[nH]3)cc2)c(=O)n([C@H]2CC[C@H](Oc3ccc(OC)cc3)CC2)c2ncnn12 [Example 271, 4-[trans-4-(4-methoxyphenoxy)cyclohexyl]-6-{[2′-(5-oxo-4,5-dihydro-1,2,4-oxadiazol-3-yl)biphenyl-4-yl]methyl}-7-propyl[1,2,4]triazolo[1,5-a]pyrimidin-5(4H)-one] | 43% | 2.4 nM |
| CCCc1c(Cc2ccc(-c3ccccc3-c3noc(=O)[nH]3)cc2)c(=O)n([C@H]2CC[C@@H](Oc3ccc(OC)cc3)CC2)c2ncnn12 [Example 272, 4-[cis-4-(4-methoxyphenoxy)cyclohexyl]-6-{[2′-(5-oxo-4,5-dihydro-1,2,4-oxadiazol-3-yl)biphenyl-4-yl]methyl}-7-propyl[1,2,4]triazolo[1,5-a]pyrimidin-5(4H)-one] | 28% | 2.8 nM |
| CCCc1c(Cc2ccc(-c3ccccc3-c3noc(=O)[nH]3)cc2)c(=O)n([C@H]2CC[C@H](Oc3ccc(O)cc3)CC2)c2ncnn12 [Example 273, 4-[trans-4-(4-hydroxyphenoxy)cyclohexyl]-6-{[2′-(5-oxo-4,5-dihydro-1,2,4-oxadiazol-3-yl)biphenyl-4-yl]methyl}-7-propyl[1,2,4]triazolo[1,5-a]pyrimidin-5(4H)-one] | 48% | 1.7 nM |
| CCCc1c(Cc2ccc(-c3ccccc3-c3noc(=O)[nH]3)cc2)c(=O)n([C@H]2CC[C@@H](Oc3ccc(O)cc3)CC2)c2ncnn12 [Example 274, 4-[cis-4-(4-hydroxyphenoxy)cyclohexyl]-6-{[2′-(5-oxo-4,5-dihydro-1,2,4-oxadiazol-3-yl)biphenyl-4-yl]methyl}-7-propyl[1,2,4]triazolo[1,5-a]pyrimidin-5(4H)-one] | 42% | 2.2 nM |
| CCCc1c(Cc2ccc(-c3ccccc3-c3noc(=O)[nH]3)cc2)c(=O)n([C@H]2CC[C@@](C)(O)CC2)c2ncnn12 [Example 275, 4-(cis-4-hydroxy-4-methylcyclohexyl)-6-{[2′-(5-oxo-4,5-dihydro-1,2,4-oxadiazol-3-yl)biphenyl-4-yl]methyl}-7-propyl[1,2,4]triazolo[1,5-a]pyrimidin-5(4H)-one] | 31% | 2.5 nM |

Next, values leading:

| activation at 1 µM [1] | IC50 [2] | Structure (SMILES) |
| --- | --- | --- |
| 23% | 1.6 nM | CCCc1c(Cc2ccc(-c3ccccc3-c3noc(=O)[nH]3)cc2)c(=O)n([C@H]2CC[C@H](OC/C(C)=N/OC)CC2)c2ncnn12 [Example 216, 4-(trans-4-{[(2E)-2-(methoxyimino)propyl]oxy}cyclohexyl)-6-{[2′-(5-oxo-4,5-dihydro-1,2,4-oxadiazol-3-yl)biphenyl-4-yl]methyl}-7-propyl[1,2,4]triazolo[1,5-a]pyrimidin-5(4H)-one] |
| 27% | 1.5 nM | CCCc1c(Cc2ccc(-c3ccccc3-c3noc(=O)[nH]3)cc2)c(=O)n([C@H]2CC[C@H](OCC3(CO)CCC3)CC2)c2ncnn12 [Example 228, 4-(trans-4-{[1-(hydroxymethyl)cyclobutyl]methoxy}cyclohexyl)-6-{[2′-(5-oxo-4,5-dihydro-1,2,4-oxadiazol-3-yl)biphenyl-4-yl]methyl}-7-propyl[1,2,4]triazolo[1,5-a]pyrimidin-5(4H)-one] |
| 35% | 2.1 nM | CCCCc1c(Cc2ccc(-c3ccccc3-c3noc(=O)[nH]3)cc2)c(=O)n([C@H]2CC[C@H](OCC(C)(C)O)CC2)c2ncnn12 [Example 232, 7-butyl-4-[trans-4-(2-hydroxy-2-methylpropoxy)cyclohexyl]-6-{[2′-(5-oxo-4,5-dihydro-1,2,4-oxadiazol-3-yl)biphenyl-4-yl]methyl}[1,2,4]triazolo[1,5-a]pyrimidin-5(4H)-one] |
| 26% | 1.9 nM | CCCc1c(Cc2ccc(-c3ccccc3-c3noc(=O)[nH]3)cc2F)c(=O)n([C@H]2CC[C@H](OCC(C)(C)O)CC2)c2ncnn12 [Example 233, 6-{[3-fluoro-2′-(5-oxo-4,5-dihydro-1,2,4-oxadiazol-3-yl)biphenyl-4-yl]methyl}-4-[trans-4-(2-hydroxy-2-methylpropoxy)cyclohexyl]-7-propyl[1,2,4]triazolo[1,5-a]pyrimidin-5(4H)-one] |
| 29% | 2.3 nM | CCCc1c(Cc2ccc(-c3ccccc3-c3noc(=O)[nH]3)cc2)c(=O)n([C@H]2CC[C@H](OC(C)C#N)CC2)c2ncnn12 (stereo partly drawn) [Example 244, 2-({trans-4-[5-oxo-6-{[2′-(5-oxo-4,5-dihydro-1,2,4-oxadiazol-3-yl)biphenyl-4-yl]methyl}-7-propyl[1,2,4]triazolo[1,5-a]pyrimidin-4(5H)-yl]cyclohexyl}oxy)propanenitrile] |
